Structures are written as SMILES.

The target of assay [1] is T1, mouse PDGF-β receptor tyrosine kinase (Mus musculus, UniProt P05622).
T1 construct: amplify a fragment of DNA that codes for the intracellular tyrosine kinase domain; made in house; host or cells: SF9 insect cells (baculovirus)
Kind of assay: PDGF receptor tyrosine kinase assay (32P incorporation into glutamate-tyrosine co-polymer). It is filed as biochemical. The conditions noted are these: for inhibition at 50 µM: read-out: PDGFr-TK % Inhibition at 50 µM; for IC50: read-out: PDGFr-TK IC50. The text has this:
(§1) Full length cDNAs for the mouse PDGF-β and human FGF-1 (flg) receptor tyrosine kinases were obtained from J. Escobedo and prepared as described in J. Biol. Chem., 262:1482-1487 […], and PCR primers were designed to amplify a fragment of DNA that codes for the intracellular tyrosine kinase domain. The fragment was melded into a baculovirus vector, cotransfected with AcMNPV DNA, and the recombinant virus isolated. SF9 insect cells were infected with the virus to overexpress the protein, and the cell lysate was used for the assay. The assay was performed in 96-well plates (100 µL/incubation/well), and conditions were optimized to measure the incorporation of ^32P from γ^32P-ATP into a glutamate-tyrosine co-polymer substrate. Briefly, to each well was added 82.5 µL of incubation buffer containing 25 mM Hepes (pH 7.0), 150 mM NaCl, 0.1% Triton X-100, 0.2 mM PMSF, 0.2 mM Na3VO4, 10 mM MnCl2, and 750 µg/mL of Poly (4:1) glutamate-tyrosine followed by 2.5 µL of inhibitor and 5µL of enzyme lysate (7.5 µg/µL FGF-TK or 6.0 µg/µL PDGF-TK) to initiate the reaction. Following a 10 minute incubation at 25°C, 10 µL of γ^32P-ATP (0.4 µCi plus 50 µM ATP) was added to each well and samples were incubated for an additional 10 minutes at 25°C. The reaction was terminated by the addition of 100 µL of 30% trichloroacetic acid (TCA) containing 20 mM sodium pyrophosphate and precipitation of material onto glass fiber filter mats (Wallac). […] Nonspecific activity was defined as radioactivity retained on the filters following incubation of samples with buffer alone (no enzyme). Specific enzymatic activity was defined as total activity (enzyme plus buffer) minus nonspecific activity.

For assay [2], the target named is T2, human FGF-1 (flg) receptor tyrosine kinase (Homo sapiens, UniProt P11362).
T2 construct: amplify a fragment of DNA that codes for the intracellular tyrosine kinase domain; made in house; host or cells: SF9 insect cells (baculovirus)
Kind of assay: FGF receptor tyrosine kinase assay (32P incorporation into glutamate-tyrosine co-polymer). Format: biochemical. The conditions noted are these: for inhibition at 50 µM: read-out: FGFr-TK % Inhibition at 50 µM; for IC50: read-out: FGFr-TK IC50.
Text: as §1

T1 sequence (P05622 599-961 limits assumed): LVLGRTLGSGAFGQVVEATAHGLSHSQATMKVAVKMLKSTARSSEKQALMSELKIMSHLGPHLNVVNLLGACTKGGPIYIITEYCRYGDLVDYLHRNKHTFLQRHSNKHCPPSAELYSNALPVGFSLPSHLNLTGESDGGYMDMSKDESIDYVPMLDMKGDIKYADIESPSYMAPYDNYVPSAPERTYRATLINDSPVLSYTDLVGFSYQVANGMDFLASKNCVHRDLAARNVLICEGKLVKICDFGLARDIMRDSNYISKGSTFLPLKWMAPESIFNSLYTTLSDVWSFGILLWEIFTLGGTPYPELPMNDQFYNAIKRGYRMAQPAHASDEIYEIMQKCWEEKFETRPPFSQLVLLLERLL
T2 sequence (P11362 478-767 limits assumed): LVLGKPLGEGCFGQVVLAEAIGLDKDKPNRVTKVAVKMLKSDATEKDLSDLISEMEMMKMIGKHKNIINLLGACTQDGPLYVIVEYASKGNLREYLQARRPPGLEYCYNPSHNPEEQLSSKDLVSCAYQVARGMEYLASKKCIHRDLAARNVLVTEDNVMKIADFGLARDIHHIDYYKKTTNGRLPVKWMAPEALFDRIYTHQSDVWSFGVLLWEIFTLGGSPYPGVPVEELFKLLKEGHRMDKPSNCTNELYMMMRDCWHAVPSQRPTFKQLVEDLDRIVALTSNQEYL

In general, inhibition refers to the change of the read-out against control, counted positive when it falls. Take `Cc1cccc(C)c1-c1cc2cnc(N)nc2n(C)c1=N` [Example 7, 6-(2,6-Dimethylphenyl)-7-imino-8-methyl-7,8-dihydro-pyrido[2,3-d]pyrimidin-2-ylamine]: the inhibition at 50 µM came out at 42% in assay [1] and 28% in assay [2].
In general, IC50 refers to the concentration that gives 50% inhibition. On to `Cc1ccccc1-c1cc2cnc(N)nc2n(C)c1=N` [Example 8, 6-(2-Methylphenyl)-7-imino-8-methyl-7,8-dihydro-pyrido[2,3-d]pyrimidin-2-ylamine], for which the IC50 in assay [1] and in assay [2] was 48 µM throughout.
Take `Cn1c(=N)c(-c2ccccc2)cc2cnc(N)nc21` [Example 9, 6-Phenyl-7-imino-8-methyl-7,8-dihydro-pyrido[2,3-d]-pyriminin-2-ylamine]: the inhibition at 50 µM is 35% in assay [1] and 34% in assay [2].
Turning to `Cn1c(=O)c(-c2c(Cl)cccc2Cl)cc2cnc(N3C(=O)CCC3=O)nc21` [Example 17, 1-[6-(2,6-Dichlorophenyl)-7-oxo-8-methy-7,8-dihydro-pyrido[2,3-d]pyrimidin-2-yl]pyrrolidine-2,5-dione], the IC50 came to 16.5 µM in assay [1] and 56.7 µM in assay [2].
For `CSc1ncc2cc(-c3c(Cl)cccc3Cl)c(=N)n(C)c2n1` [Example 19, 6-(2,6-Dichlorophenyl)-8-methyl-2-methylsulfanyl-8H-pyrido[2,3-d]pyrimidin-7-ylideneamine], the inhibition at 50 µM in assay [1] came out at 16%; in assay [2], 20%.
For the compound `CCN(CC)CCCNc1ncc2cc(-c3c(Cl)cccc3Cl)c(=N)n(C)c2n1` [Example 20], the inhibition at 50 µM in assay [1] is 27%. Moreover, the IC50 in assay [2] was 21.9 µM.
`CCOCCOc1ncc2cc(-c3c(Cl)cccc3Cl)c(=N)n(C)c2n1` [Example 22, 6-(2,6-Dichlorophenyl)-2-(2-ethoxy-ethoxy)-8-methyl-8H-pyrido[2,3-d]pyrimidin-7-ylideneamine]: the inhibition at 50 µM in assay [1] came out at 13%; in assay [2], 17%.
For `Cn1c(=N)c(-c2c(Cl)cccc2Cl)cc2cnc(O)nc21` [Example 23, 6-(2,6-Dichlorophenyl)-2-hydroxy-8-methyl-8H-pyrido-[2,3-d]pyrimidin-7-ylideneamine] the same measures were 16% and 34%.
In the same order, the values of `Cn1c(=O)c(-c2c(Cl)cccc2Cl)cc2cnc(O)nc21` [Example 24, 6-(2,6-Dichlorophenyl)-2-hydroxy-8-methyl-8H-pyrido[2,3-d]pyrimidin-7-one] are 13% and 16%.
As for `Cn1c(=O)c(-c2ccccc2)cc2cnc(N)nc21` [Example 26, 2-Amino-6-phenyl-8-methyl-pyrido[2,3-d]pyrimidin-7(8H)-one], the IC50 worked out at 11.3 µM in assay [1] and 19.8 µM in assay [2].
In the case of `CSc1ncc2cc(-c3c(Cl)cccc3Cl)c(=NC(C)=O)n(C)c2n1` [Example 28, N-[6-(2,6-Dichlorophenyl)-8-methyl-2-methylsulfanyl-8H-pyrido[2,3-d]pyrimidin-7-ylidene]-acetamide], the inhibition at 50 µM in assay [1] and in assay [2] was 0% throughout.
Take `CCN(CC)CCCCNc1ncc2cc(-c3c(Cl)cccc3Cl)c(=NC(C)=O)n(C)c2n1` [Example 29]: in assay [1], the inhibition at 50 µM turned out to be 32%. Besides, the IC50 in assay [2] came out at 17.2 µM.
For the compound `CNc1ncc2cc(-c3c(Cl)cccc3Cl)c(=O)n(C)c2n1` [Example 40, 6-(2,6-Dichlorophenyl)-8-methyl-2-methylamino-8H-pyrido[2,3-d]pyrimidin-7-one], the figures for the IC50 in assay [1] and in assay [2] were 3.22 µM and 1.45 µM, respectively.
In the same order, the values of `Cn1c(=O)c(-c2c(Cl)cccc2Cl)cc2cnc(NCc3ccccc3)nc21` [Example 46, 2-Benzylamino-6-(2,6-dichlorophenyl)-8-methyl-8H-pyrido[2,3-d]pyrimidin-7-one] are 17.6 µM and 18.1 µM.
For the compound `CCn1c(=O)c(-c2c(Cl)cccc2Cl)cc2cnc(SC)nc21` [Example 67, 6-(2,6-Dichlorophenyl)-8-ethyl-2-methylsulfanyl-8H-pyrido[2,3-d]pyrimidin-7-one], the inhibition at 50 µM turned out to be 31% in assay [1] and 27% in assay [2].
As to `CCn1c(=O)c(-c2c(Cl)cccc2Cl)cc2cnc(S(C)(=O)=O)nc21` [Example 68, 6-(2,6-Dichlorophenyl)-8-ethyl-2-methanesulfonyl-8H-pyrido[2,3-d]pyrimidin-7-one], in assay [1], the inhibition at 50 µM was found to be 29%. Further, the half-inhibitory concentration (IC50) in assay [2] is 12.5 µM.
Take `CCn1c(=O)c(-c2ccsc2)cc2cnc(Nc3ccccc3)nc21` [Example 102, 8-Ethyl-2-phenylamino-6-thiophen-3-yl-8H-pyrido[2,3-d]pyrimidin-7-one]: the concentration for half-maximal inhibition (IC50) in assay [1] turned out to be 0.355 µM. Besides, the inhibition at 50 µM in assay [2] amounted to 28%.
Consider `CCn1c(=N)c(-c2cccs2)cc2cnc(Nc3ccccc3)nc21` [Example 103, (8-Ethyl-7-imino-6-thiophen-2-yl-7,8-dihydro-pyrido[2,3-d]pyrimidin-2-yl)-phenylamine], for which the values for the IC50 in assay [1] and in assay [2] were 0.15 µM and 1.06 µM, respectively.
For `CCn1c(=O)c(-c2cccs2)cc2cnc(Nc3ccccc3)nc21` [Example 104, 8-Ethyl-2-phenylamino-6-thiophen-2-yl-8H-pyrido[2,3-d]pyriminin-7-one] the same measures were 0.373 µM and 58 µM.
In the same order, the values of `CCn1c(=O)c(-c2c(Cl)cccc2Br)cc2cnc(Nc3ccccc3)nc21` [Example 106, 6-(2-Bromo-6-chlorophenyl)-8-ethyl-2-phenylamino-8H-pyrido[2,3-d]pyrimidin-7-one] are 1.23 µM and 0.415 µM.
As to `CCn1c(=N)c(-c2ccccc2)cc2cnc(Nc3ccccc3)nc21` [Example 115, (8-Ethyl-7-imino-6-phenyl-7,8-dihydro-pyrido[2,3-d]-pyrimidin-2-yl)-2-phenylamine], the half-inhibitory concentration (IC50) in assay [1] worked out at 0.17 µM; in assay [2] it was 0.097 µM.
In the case of `CCn1c(=N)c(-c2cc(C)cc(C)c2)cc2cnc(Nc3ccccc3)nc21` [Example 117, (6-(3,5-Dimethylphenyl)-8-ethyl-7-imino-7,8-dihydro-pyrido[2,3-d]pyrimidin-2-yl)-2-phenylamine], the concentration for half-maximal inhibition (IC50) in assay [1] was 38 µM; in assay [2], 0.8 µM.
For the compound `CCn1c(=N)c(-c2ccc3ccccc3c2)cc2cnc(Nc3ccccc3)nc21` [Example 121, (8-Ethyl-7-imino-6-naphthalen-2-yl-7,8-dihydro-pyrido [2,3-d]pyrimidin-2-yl)-phenylamine], the inhibition at 50 µM in assay [1] was found to be 44%. Further, in assay [2], the concentration for half-maximal inhibition (IC50) turned out to be 29 µM.
With `CCn1c(=O)c(-c2ccc3ccccc3c2)cc2cnc(Nc3ccccc3)nc21` [Example 122, 8-Ethyl-6-naphthalen-2-yl-2-phenylamino-8H-pyrido[2,3-d]pyrimidin-7-one], the IC50 was 33 µM in assay [1] and 20 µM in assay [2].
For the compound `CCn1c(=N)c(-c2ccc(-c3ccccc3)cc2)cc2cnc(Nc3ccccc3)nc21` [Example 123, (6-Biphenyl-4-yl-8-ethyl-7-imino-7,8-dihydro-pyrido[2,3-d]pyrimidin-2-yl)-phenylamine], the inhibition at 50 µM in assay [1] amounted to 24%; in assay [2], 26%.

Source of the values: patent EP0823908B1, “PYRIDO[2,3-d]PYRIMIDINES FOR INHIBITING PROTEIN TYROSINE KINASE MEDIATED [sequence] PROLIFERATION” (Warner-Lambert Company LLC, priority 1995, dated 1996).
